Tests used:
A. Niger ATCC 9642 = assay: Activity against yeast and mold, 0.3% test solutions; format: cell-based, Aspergillus niger; set-up: key: + Growth; − No Growth
Source text: Activity against yeast and mold:

[1] = test system: Aspergillus niger ATCC 16404; assay: Minimum Inhibitory Concentration (MIC) test, tube dilution, static and cidal; format: cell-based; settings: A. niger
Description: (§1) The measurement of the lowest effective concentration of an anti-microbial or anti-microbial blend is important for recommending use concentrations. The MIC test is an in vitro tube dilution procedure used to identify effective concentrations of anti-microbials. In this test, the experimental compound is diluted by serial concentrations into nutrient culture media. Test organisms are then inoculated into the anti-microbial solutions.
(§2) If the experimental compound is effective, there is no growth observed in the test dilution tubes and they are clear. If the experimental compound is not effective, the test dilution tubes are cloudy, indicating growth. This test will determine static as well as cidal activity concentrations.
(§3) • 1. Laminar flow hood (Baker Sterilgard SG 400) • 2. 18×150 mm culture tubes • 3. Stock antimicrobial solution • 4. Media: Trypticase soy broth (BBL 11043) and AOAC Letheen broth (BBL 10914) • 5. Test organisms: Staphylococcus aureus ATCC 6538, Escherichia coli ATCC 8739, Pseudomonas aeruginosa ATCC 9027, Burkholderia cepacia ATCC 25416, Candida albicans ATCC 10231, and Aspergillus niger ATCC 16404. • 6. Spectrophotometer (Spectronic 20D, Milton Roy)
(§4) • 1. Antimicrobial stock solutions are prepared at predetermined concentrations (i.e., 10% through 0.07%) depending on the test material. Serial doubling dilutions are made as follows. Each culture tube contains 5 mls of trypticase soy broth. Five mls of the stock solution are added to the first tube and vortexed. 5 mls are then removed and placed into the second tube, (and so on, until the last tube). At the final test concentration, 5 mls of the broth/antimicrobial mixture is decanted out. • 2. The test organisms are prepared as with any organism inoculum (MLM 100-3, MLM 100-4, and MLM 100-5). A saline suspension of each organism is prepared. The bacterial organisms and the yeast are a standardized at a concentration of 1×10^6 cfu/ml. The mold inoculum is approximately 1×10^5 cfu/ml. • 3. Inoculate each culture tube with 0.10 mls of organism inoculum and vortex. • 4. Incubate bacterial tubes for 24 hours at 35° C. Incubate yeast or mold tubes for 48 hours at 25° C. Read for growth; turbid tubes for bacteria and yeast; mold clearly visible tubes. This is the minimum inhibitory concentration (static activity). • 5. After the tubes are read, transfer all “clear” tubes and the first cloudy (growth) tube into Letheen broth containing neutralizers. Incubate the Letheen broth tubes for 48 hours at the bacterial or fungal incubation temperatures. Read for growth; turbid tubes for bacteria and yeast; mold clearly visible in mold tubes. This is the cidal activity concentration. Discussion
(§5) The cidal activity of an anti-microbial can be rapidly screened by means of a MIC test before further evaluation tests, such as longer preservative efficacy tests, are performed. This test is a tube serial dilution procedure limited only by the water solubility of the material. Where anti-microbial materials are slightly insoluble, leaving the TSB broth turbid, a procedure modification can be made. Tubes are incubated for 24 hours (bacteria) or 48 hours (fungi) but instead of transfer to Letheen broth, the TSB tubes are streaked onto Letheen agar. The agar plates are then incubated appropriately and then read for absence or presence of growth. Depending on the degree of insolubility, a measure of cidal activity may be the only parameter measured.
(§6) Anti-microbial neutralization is important in this screening test. […] These are to be determined prior to testing.

[2] = test system: Burkholderia cepacia ATCC 25416; assay: as above; format: cell-based; settings: B. cepacia
Description: as §1, §2, §3, §4, §5, §6

[3] = test system: Candida albicans ATCC 10231; assay: as above; format: cell-based; settings: C. albicans
Description: as §1, §2, §3, §4, §5, §6

[4] = test system: Escherichia coli ATCC 8739; assay: as above; format: cell-based; settings: E. coli
Description: as §1, §2, §3, §4, §5, §6

[5] = test system: Pseudomonas aeruginosa ATCC 9027; assay: as above; format: cell-based; settings: P. aeruginosa
Description: as §1, §2, §3, §4, §5, §6

[6] = test system: Staphylococcus aureus ATCC 6538; assay: as above; format: cell-based; settings: Staph aureus
Description: as §1, §2, §3, §4, §5, §6

AN (Aspergillus niger) = assay: Preservative challenge test, nonionic emulsion; format: cell-based
Description: (§7) A typical cosmetic emulsion was prepared for microbiological challenge testing and predetermined admixtures of a methylol compound and IPBC were added at various use levels. The emulsion thus prepared had the following composition:
(§8) The challenge tests were carried out using the following microorganisms: SA, ECOLI, PSA, PC, AN and CAN, in this manner. 50 g aliquots of the test emulsion containing various amounts of the preservative admixture were inoculated with approximately 10^7–10^8 of the challenge organisms. The test samples then were stirred to disperse the challenge inoculum. The samples were incubated and assayed at 48 hours, 7, 14, 21 and 28 days. The assays were performed on 1 g of the test sample by serially diluting 10^1 to 10^6 of the original concentration. The plating medium for bacteria was Letheen agar and for fungi it was low pH Mycophil agar with Tween 20. Each plated sample was incubated for 48 hours at 37° C. for bacteria, 5 days at 25° C. for mold, and 3 days at 25° C. for fungi. After incubation, readings of the number of colonies per milliliter (cfu/ml) were made. At 21 days the test product was reinoculated with half of the original inoculum.

[7] = test system: PSA (Pseudomonas aeruginosa); assay: Preservative challenge test, nonionic emulsion; format: cell-based
Description: as §7, §8

[8] = test system: SA (Staphylococcus aureus); assay: Preservative challenge test, nonionic emulsion; format: cell-based
Description: as §7, §8

O=C1C(N(CO)C(=O)NCO)N(CO)C(=O)N1CO (stereo not shown) [Germall II]
600 ppm: CIDAL (cidal activity concentration) [2] | STATIC (minimum inhibitory concentration) [4] | STATIC (minimum inhibitory concentration) [5]
300 ppm: STATIC (minimum inhibitory concentration) [6]
>5000 ppm: CIDAL (cidal activity concentration) [3]
5000 ppm: STATIC (minimum inhibitory concentration) [3]
150 ppm: STATIC (minimum inhibitory concentration) [2]
<10 cfu/ml: cfu/ml, 48 hrs (AN (Aspergillus niger); 2000 ppm) | cfu/ml, 7 days (AN (Aspergillus niger); 2000 ppm) | cfu/ml, 14 days (AN (Aspergillus niger); 2000 ppm) | cfu/ml, 21 days (AN (Aspergillus niger); 2000 ppm) | cfu/ml, 28 days (AN (Aspergillus niger); 2000 ppm) | cfu/ml, 48 hrs (AN (Aspergillus niger); 4000 ppm) | cfu/ml, 7 days (AN (Aspergillus niger); 4000 ppm) | cfu/ml, 14 days (AN (Aspergillus niger); 4000 ppm) | cfu/ml, 21 days (AN (Aspergillus niger); 4000 ppm) | cfu/ml, 28 days (AN (Aspergillus niger); 4000 ppm) | cfu/ml, 48 hrs ([7]; 2000 ppm) | cfu/ml, 7 days ([7]; 2000 ppm) | cfu/ml, 14 days ([7]; 2000 ppm) | cfu/ml, 21 days ([7]; 2000 ppm) | cfu/ml, 28 days ([7]; 2000 ppm) | cfu/ml, 48 hrs ([7]; 4000 ppm) | cfu/ml, 7 days ([7]; 4000 ppm) | cfu/ml, 14 days ([7]; 4000 ppm) | cfu/ml, 21 days ([7]; 4000 ppm) | cfu/ml, 28 days ([7]; 4000 ppm) | cfu/ml, 48 hrs ([8]; 2000 ppm) | cfu/ml, 7 days ([8]; 2000 ppm) | cfu/ml, 14 days ([8]; 2000 ppm) | cfu/ml, 21 days ([8]; 2000 ppm) | cfu/ml, 28 days ([8]; 2000 ppm) | cfu/ml, 48 hrs ([8]; 4000 ppm) | cfu/ml, 7 days ([8]; 4000 ppm) | cfu/ml, 14 days ([8]; 4000 ppm) | cfu/ml, 21 days ([8]; 4000 ppm) | cfu/ml, 28 days ([8]; 4000 ppm)
1250 ppm: CIDAL (cidal activity concentration) [4] | CIDAL (cidal activity concentration) [5] | CIDAL (cidal activity concentration) [6]
2500 ppm: CIDAL (cidal activity concentration) [1] | STATIC (minimum inhibitory concentration) [1]
−: Growth, A. Niger ATCC 9642(for 3 Days) (A. Niger ATCC 9642)

— patent publication US7087762B2, “Long-lasting antimicrobial reaction product of allantoin and formaldehyde containing a low level of free formaldehyde” (ISP Investments Inc., priority 2002, dated 2006)
